Data reported in patent US11578084B2, “Condensed ring compounds having dopamine D3 receptor antagonistic effect” (Shionogi & Co., Ltd., priority 2018, dated 2023).

How the values were obtained:
[1] = biological target: human recombinant dopamine D3 receptor (Homo sapiens (Human), UniProt P35462); experiment: Test of binding inhibition for dopamine D3 receptor ([3H]-Methylspiperone SPA); conditions: Jump-In HEK cell membranes, 2 nM [3H]-Methylspiperone, 120 min at 25° C.; read-out: hD3_Ki
Summary of the method: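 SPA radioligand binding on Jump-In HEK membranes expressing human D3 receptor (4 µg/well) with 2 nM [3H]-methylspiperone (final), incubated 120 min at 25 °C. Non-specific binding defined with 10 µM butaclamol. Percent inhibition computed against total and non-specific binding; Ki from dose-response curves.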

[2] = biological target: human recombinant dopamine D2 receptor (Homo sapiens (Human), UniProt P14416); experiment: Test of binding inhibition for dopamine D2 receptor ([3H]-Methylspiperone SPA); conditions: Jump-In HEK cell membranes, 1.2 nM [3H]-Methylspiperone, 120 min at 25° C.; read-out: hD2_Ki
Summary of the method: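 Scintillation proximity competition binding of [3H]-Methylspiperone to Jump-In HEK membranes expressing human D2 (2 μg protein/well) on WGA SPA beads (0.2 mg/well), 120 min at 25° C.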

hERG channel (IKr) = hERG channel (IKr) (Homo sapiens (Human), UniProt Q12809); experiment: hERG test (whole cell patch clamp, IKr); type: cell-based; conditions: human, CHO cells expressing hERG channel, pH 7.4, 3 μM, tail peak current
Excerpt: Test Example 10: hERG Test
For the purpose of assessing risk of an electrocardiogram QT interval prolongation of the compound of the present invention, effects of the compound of the present invention on delayed rectifier K+ current (IKr), which plays an important role in the ventricular repolarization process, was studied using CHO cells expressing human ether-a-go-go related gene (hERG) channel.
After a cell was retained at a membrane potential of −80 mV by whole cell patch clamp method using an automated patch clamp system (QPatch; Sophion Bioscience A/S) and gave a leak potential of −50 mV, IKr induced by depolarization pulse stimulation at +20 mV for 2 seconds and, further, repolarization pulse stimulation at −50 mV for 2 seconds, was recorded. After the generated current was stabilized, extracellular solution (NaCl: 145 mmol/L, KCl: 4 mmol/L, CaCl2): 2 mmol/L, MgCl2: 1 mmol/L, glucose: 10 mmol/L, HEPES (4-(2-hydroxyethyl)-1-piperazineethanesulfonic acid): 10 mmol/L, pH=7.4), in which the compound of the present invention had been dissolved at an objective concentration in the extracellular solution, was applied to the cell at room temperature for 7 minutes or more. From the recording IKr, an absolute value of the tail peak current was measured based on the current value at the resting membrane potential using analysis software (QPatch Assay software; Sophion Bioscience A/S). Further, the % inhibition of tail peak current for the compound of the present invention relative to the tail peak current after application of the solution (0.1% dimethyl sulfoxide solution) was calculated to assess influence of the compound of the present invention on IKr.

Sequence of human recombinant dopamine D2 receptor (P14416 whole entry): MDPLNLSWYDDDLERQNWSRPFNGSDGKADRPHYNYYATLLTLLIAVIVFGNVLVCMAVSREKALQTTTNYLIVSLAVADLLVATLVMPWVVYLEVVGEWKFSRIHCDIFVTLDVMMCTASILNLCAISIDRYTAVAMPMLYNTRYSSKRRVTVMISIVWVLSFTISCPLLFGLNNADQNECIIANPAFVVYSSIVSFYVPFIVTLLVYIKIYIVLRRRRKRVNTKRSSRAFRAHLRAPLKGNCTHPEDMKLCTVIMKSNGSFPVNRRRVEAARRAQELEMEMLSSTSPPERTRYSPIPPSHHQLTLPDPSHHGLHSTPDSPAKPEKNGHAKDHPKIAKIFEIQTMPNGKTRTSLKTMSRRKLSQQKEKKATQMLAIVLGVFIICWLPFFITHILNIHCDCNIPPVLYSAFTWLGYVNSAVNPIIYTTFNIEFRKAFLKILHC
Sequence of hERG channel (IKr) (Q12809 whole entry): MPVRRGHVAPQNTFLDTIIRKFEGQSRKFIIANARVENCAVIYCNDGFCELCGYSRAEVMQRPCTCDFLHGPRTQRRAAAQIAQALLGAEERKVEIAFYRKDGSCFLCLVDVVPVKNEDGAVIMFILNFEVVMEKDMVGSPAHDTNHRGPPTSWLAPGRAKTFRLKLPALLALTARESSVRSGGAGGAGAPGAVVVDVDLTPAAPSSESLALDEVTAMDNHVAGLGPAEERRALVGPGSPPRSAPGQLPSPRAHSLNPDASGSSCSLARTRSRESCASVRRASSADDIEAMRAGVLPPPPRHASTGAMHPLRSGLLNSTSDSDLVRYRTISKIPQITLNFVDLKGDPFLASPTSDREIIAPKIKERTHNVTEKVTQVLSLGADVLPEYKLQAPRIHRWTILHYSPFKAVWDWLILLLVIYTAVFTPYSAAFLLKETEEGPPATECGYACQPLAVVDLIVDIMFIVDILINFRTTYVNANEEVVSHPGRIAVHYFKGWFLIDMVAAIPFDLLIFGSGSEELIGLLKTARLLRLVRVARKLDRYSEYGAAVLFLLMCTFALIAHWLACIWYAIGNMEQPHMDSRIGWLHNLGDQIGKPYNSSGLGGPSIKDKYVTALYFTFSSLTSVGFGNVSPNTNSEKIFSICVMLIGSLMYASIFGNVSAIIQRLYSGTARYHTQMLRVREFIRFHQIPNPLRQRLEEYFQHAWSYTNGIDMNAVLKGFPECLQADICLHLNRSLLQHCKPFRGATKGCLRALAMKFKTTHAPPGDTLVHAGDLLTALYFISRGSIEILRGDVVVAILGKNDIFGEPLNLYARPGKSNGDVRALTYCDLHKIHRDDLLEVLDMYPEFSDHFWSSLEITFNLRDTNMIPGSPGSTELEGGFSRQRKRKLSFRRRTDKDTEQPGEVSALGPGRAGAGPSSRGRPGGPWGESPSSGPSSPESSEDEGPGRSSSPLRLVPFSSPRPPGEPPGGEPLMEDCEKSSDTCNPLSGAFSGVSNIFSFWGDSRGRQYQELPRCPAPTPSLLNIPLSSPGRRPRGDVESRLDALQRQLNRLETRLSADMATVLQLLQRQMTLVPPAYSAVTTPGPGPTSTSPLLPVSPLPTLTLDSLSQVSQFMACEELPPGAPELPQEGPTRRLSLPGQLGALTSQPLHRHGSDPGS
Sequence of human recombinant dopamine D3 receptor (P35462 whole entry): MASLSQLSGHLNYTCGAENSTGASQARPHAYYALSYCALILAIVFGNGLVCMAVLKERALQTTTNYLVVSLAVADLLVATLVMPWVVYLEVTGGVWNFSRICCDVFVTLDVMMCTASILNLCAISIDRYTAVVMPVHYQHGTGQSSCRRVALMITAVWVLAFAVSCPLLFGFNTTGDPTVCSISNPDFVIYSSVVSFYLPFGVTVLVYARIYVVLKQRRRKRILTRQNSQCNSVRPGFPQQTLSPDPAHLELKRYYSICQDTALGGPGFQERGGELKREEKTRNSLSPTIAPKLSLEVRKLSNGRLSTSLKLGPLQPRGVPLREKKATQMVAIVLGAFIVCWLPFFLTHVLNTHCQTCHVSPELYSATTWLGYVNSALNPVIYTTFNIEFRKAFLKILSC

Row | SMILES | Ki [1] [nM] | Ki [2] [nM] | inhibition at 3 µM (hERG channel (IKr)) [%]
1 | O=C(N[C@H]1CC[C@H](CCN2CCc3nc(OCC(F)(F)F)sc3CC2)CC1)c1cccnc1C(F)F [Example I-048] | 0.048 | 390 | 3.52
2 | Cn1c(C(=O)N[C@H]2CC[C@H](CCN3CCc4nc(OCC(C)(F)F)sc4CC3)CC2)cccc1=O [Example I-056] | 0.24 | 490 | 10.7
3 | Cn1cc(CC(=O)N[C@H]2CC[C@](F)(CCN3CCc4nc(OCC(F)F)sc4CC3)CC2)cn1 [Example I-059] | 0.69 | > 1700 | 6.72
4 | Cc1ncc(CC(=O)N[C@H]2CC[C@](F)(CCN3CCc4nc(OCC(F)F)sc4CC3)CC2)o1 [Example I-060] | 0.59 | 1400 | 17.7
5 | Cn1cc2ccc(C(=O)N[C@H]3CC[C@H](CCN4CCc5nc(OCC(C)(F)F)sc5CC4)OC3)cc2n1 [Example I-066] | 0.37 | 770 | 14.3
6 | Cc1ncc(OCC(=O)N[C@H]2CC[C@H](CCN3CCc4sc(C5CC(F)(F)C5)nc4C3)CC2)cn1 [Example I-069] | 0.49 | 670 | 34.2
7 | Cc1nnc(CC(=O)N[C@H]2CC[C@H](CCN3CCc4sc(C5CC(F)(F)C5)nc4C3)CC2)s1 [Example I-071] | 0.16 | 450 | 16.6
8 | Cc1nnc(CC(=O)N[C@H]2CC[C@](F)(CCN3CCc4nc(OCC(C)(F)F)sc4CC3)CC2)s1 [Example I-073] | 0.29 | 450 | 25.9
9 | Cn1cc(/C=C/C(=O)N[C@H]2CC[C@](F)(CCN3CCc4nc(OCC(C)(F)F)sc4CC3)CC2)cn1 [Example I-074] | 0.025 | 63 | 31
10 | Cn1cc(OCC(=O)N[C@H]2CC[C@](F)(CCN3CCc4nc(OCC(C)(F)F)sc4CC3)CC2)cn1 [Example I-075] | 0.22 | 240 | 33.8
11 | CC[C@@H](C)Oc1ccc2c(n1)CCN(CC[C@H]1CC[C@H](NC(=O)c3cccc4nn(C)cc34)CC1)CC2 [Example I-076] | 0.1 | > 1900 | 13.4
12 | Cn1cc2c(C(=O)NN3CCC(CCN4CCc5sc(OCC(C)(F)F)nc5C4)CC3)cccc2n1 [Example I-077] | 0.38 | > 1800 | 4.33
13 | Cn1c(C(=O)NN2CCC(CCN3CCc4sc(OCC(F)(F)F)nc4C3)CC2)cccc1=O [Example I-080] | 0.81 | 2100 | 5.68
14 | Cn1cc2c(C(=O)NN3CCC(CCN4CCc5sc(OCC(F)(F)F)nc5C4)CC3)ccc(F)c2n1 [Example I-081] | 0.2 | 640 | 5.59
15 | Cc1ncc(/C=C/C(=O)N[C@H]2CC[C@H](CCN3CCc4nc(OC5CC(F)(F)C5)sc4CC3)CC2)cn1 [Example I-082] | 0.086 | 670 | 11.1
16 | C[C@@H](Oc1nc2c(s1)CCN(CC[C@H]1CC[C@H](NC(=O)c3cccc4nn(C)cc34)CC1)CC2)C(F)(F)F [Example I-083] | 0.16 | > 2200 | 25.1
17 | CCc1ncccc1C(=O)N[C@H]1CC[C@H](CCN2CCc3ccc(OC4CCC4)nc3CC2)CC1 [Example I-088] | 0.8 | 1300 | 32
18 | Cc1ncccc1C(=O)N[C@H]1CC[C@H](CCN2CCc3nc(OCCC(F)(F)F)sc3CC2)CC1 [Example I-099] | 0.97 | 1600 | 29.4
19 | Cc1nnc(CC(=O)N[C@H]2CC[C@H](CCN3CCc4nc(OCCC(F)(F)F)sc4CC3)CC2)o1 [Example I-100] | 0.72 | 1500 | 33.9
20 | Cn1cc(CC(=O)N[C@H]2CC[C@H](CCN3CCc4nc(OCCC(F)(F)F)sc4CC3)CC2)cn1 [Example I-101] | 0.3 | 2200 | 34.9
